Like-named read-outs stand apart in the source and are kept apart here.
Molecular target: T1, human recombinant IL-17A (Homo sapiens, UniProt Q16552)
T1 construct: purchased R&D Systems 7955-IL/CF
T1 sequence (Q16552 24-155): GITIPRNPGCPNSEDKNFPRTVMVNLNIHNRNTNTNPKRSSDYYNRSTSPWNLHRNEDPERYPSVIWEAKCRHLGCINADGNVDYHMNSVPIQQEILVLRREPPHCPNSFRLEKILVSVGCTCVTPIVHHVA
Assay: IL-17A AlphaLISA assay (block binding of IL-17A to its receptor IL-17RA)
Settings: read-out: AlphaLISA pIC50 (converted)
Description: The ability of the compounds to block binding of IL-17A to its receptor, IL-17RA, was analysed in a competition assay using AlphaLISA technology (Perkin Elmer). The assay is a bead based AlphaLISA where the IL-17RA is captured on the acceptor bead via an Fc tag and IL-17A is captured on the streptavidin donor bead via a biotinylated anti-IL17A antibody.
Assay buffer was prepared by adding 0.05% Tween-20 (v/v) and 0.1% BSA to Phosphate Buffered Saline (PBS). The assay was carried out in 384-well white low volume plates (Corning 4512). 10 µL of a 7.5 nM stock of human recombinant IL-17A (R&D Systems 7955-IL/CF) diluted in assay buffer was dispensed into the assay plate and compounds or DMSO vehicle control were added in a volume of 75 nL using a D300 dispenser (Hewlett Packard). The compounds were pre-incubated with the IL-17A for 24 h at room temperature (or for 30 min, where indicated by * in Table A below) prior to addition of 5 μL of a 5 nM stock of human recombinant IL-17RA/Fc chimera (R&D Systems 177-IR-100) diluted in assay buffer. The IL-17A was incubated with the receptor for a further 90 minutes at room temperature before addition of 5 μL of a mixture of anti-human Fc IgG acceptor beads (75 μg/mL, Perkin Elmer AL103C) and anti-IL-17A biotin conjugated antibody (5 nM, Enzo Life Sciences, ENZ-ABS278-0100) in assay buffer. After a further 30 min incubation at room temperature, 5 μL of streptavidin donor beads ([…], Perkin Elmer 6760002S) were added and the plate was incubated for 3 h in the dark.
The luminescence signal was measured using an Enspire plate reader (Perkin Elmer) with excitation at 680 nm and emission at 615 nm. Data were analysed using GraphPad Prism and fitted to a 4-parameter logistic equation. The IC50 values were calculated using the DMSO vehicle as the negative control and a high concentration (6 μM) of a reference IL-17A inhibitor as the positive control.
Activity of the Example compounds is reported as a PIC50 value in Table A.

[1] = compounds pre-incubated with the IL-17A for 24 h at room temperature
[2] = compounds pre-incubated with the IL-17A for 30 min (indicated by * in Table A)

Compound | IC50 [1] [nM] | IC50 [2] [nM]
CCn1nccc1C(=O)N[C@H](C(=O)Nc1ccc(-c2c(C)noc2C)cn1)[C@H]1CC[C@H](C)CC1 [Example 109, N—((S)-2-((5-(3,5-Dimethylisoxazol-4-yl)pyridin-2-yl)amino)-1-((1r,4S)-4-methylcyclohexyl)-2-oxoethyl)-1-ethyl-1H-pyrazole-5-carboxamide] |  | 100
CCn1nncc1C(=O)N[C@H](C(=O)Nc1ccc(-c2c(C)cnn2C)cn1)[C@H]1CC[C@H](C)CC1 [Example 168, N—((S)-2-((5-(1,4-dimethyl-1H-pyrazol-5-yl)pyridin-2-yl)amino)-1-((1r,4S)-4-methylcyclohexyl)-2-oxoethyl)-1-ethyl-1H-1,2,3-triazole-5-carboxamide] |  | 158
Cc1cnn(C)c1-c1ccc(NC(=O)[C@@H](NC(=O)c2nonc2C)C2CCCCCC2)nc1 [Example 134, (S)—N-(1-Cycloheptyl-2-((5-(1,4-dimethyl-1H-pyrazol-5-yl)pyridin-2-yl)amino)-2-oxoethyl)-4-methyl-1,2,5-oxadiazole-3-carboxamide] |  | 200
CCc1nocc1C(=O)N[C@H](C(=O)Nc1ccc(-c2c(Cl)cnn2C)cn1)[C@H]1CC[C@H](C)CC1 [Example 201, N—((S)-2-((5-(4-chloro-1-methyl-1H-pyrazol-5-yl)pyridin-2-yl)amino)-1-((1r,4S)-4-methylcyclohexyl)-2-oxoethyl)-3-ethylisoxazole-4-carboxamide] |  | 79.4
Cc1nn(C)c(C)c1-c1ccc(NC(=O)[C@@H](NC(=O)c2ccnn2C)[C@H]2CC[C@H](C)CC2)nc1 [Example 217, 1-methyl-N—((S)-1-((1r,4S)-4-methylcyclohexyl)-2-oxo-2-((5-(1,3,5-trimethyl-1H-pyrazol-4-yl)pyridin-2-yl)amino)ethyl)-1H-pyrazole-5-carboxamide] |  | 501
CCn1nccc1C(=O)N[C@H](C(=O)Nc1ccc(-c2c(C)noc2C)cn1)C1CCCCCC1 [Example 122, (S)—N-(1-Cycloheptyl-2-((5-(3,5-dimethylisoxazol-4-yl)pyridin-2-yl)amino)-2-oxoethyl)-1-ethyl-1H-pyrazole-5-carboxamide] |  | 39.8
CCn1nccc1C(=O)N[C@H](C(=O)Nc1ccc(-c2c(C)cncc2C)cn1)[C@H]1CC[C@H](C)CC1 [Example 92, N—((S)-2-((3′,5′-Dimethyl-[3,4′-bipyridin]-6-yl)amino)-1-((1r,4S)-4-methylcyclohexyl)-2-oxoethyl)-1-ethyl-1H-pyrazole-5-carboxamide] | 20 | 
Cc1nonc1C(=O)N[C@H](C(=O)Nc1ccc(-c2c(C)noc2C)cn1)[C@H]1CC[C@H](C)CC1 [Example 120, N—((S)-2-((5-(3,5-Dimethylisoxazol-4-yl)pyridin-2-yl)amino)-1-((1r,4S)-4-methylcyclohexyl)-2-oxoethyl)-4-methyl-1,2,5-oxadiazole-3-carboxamide] |  | 251
CCc1nocc1C(=O)N[C@H](C(=O)Nc1ccc(-c2c(C)noc2C)nc1)C1CCCCCC1 [Example 171, (S)—N-(1-cycloheptyl-2-((6-(3,5-dimethylisoxazol-4-yl)pyridin-3-yl)amino)-2-oxoethyl)-3-ethylisoxazole-4-carboxamide] |  | 79.4
Cc1cnn(C)c1-c1ccc(NC(=O)C(NC(=O)c2ccnn2C)[C@H]2CC[C@H](C(F)(F)F)CC2)nc1 (some centres unmarked) [Example 185, N-(2-((5-(1,4-dimethyl-1H-pyrazol-5-yl)pyridin-2-yl)amino)-2-oxo-1-((1r,4r)-4-(trifluoromethyl)cyclohexyl)ethyl)-1-methyl-1H-pyrazole-5-carboxamide] |  | 631
CCc1nocc1C(=O)N[C@H](C(=O)Nc1ccc(-c2c(C)cnn2C)nc1)[C@H]1CC[C@H](C)CC1 [Example 155, N—((S)-2-((6-(1,4-dimethyl-1H-pyrazol-5-yl)pyridin-3-yl)amino)-1-((1r,4S)-4-methylcyclohexyl)-2-oxoethyl)-3-ethylisoxazole-4-carboxamide] |  | 100

The remaining lines, values ahead:

IC50 [1] [nM] | IC50 [2] [nM] | Compound
316 |  | Cc1c(-c2ccc(NC(=O)[C@@H](NC(=O)c3ccnn3C)C(c3ccccc3)c3ccccc3)cc2C(F)(F)F)ccc(=O)n1C [Example 54, (S)—N-(1-((4-(1,2-dimethyl-6-oxo-1,6-dihydropyridin-3-yl)-3-(trifluoromethyl)phenyl)amino)-1-oxo-3,3-diphenylpropan-2-yl)-1-methyl-1H-pyrazole-5-carboxamide]
50.1 |  | Cn1nccc1C(=O)N[C@H](C(=O)Nc1ccc(-c2ccncc2CO)cc1)C(c1ccccc1)c1ccccc1 [Example 42, (S)—N-(1-((4-(3-(hydroxymethyl)pyridin-4-yl)phenyl)amino)-1-oxo-3,3-diphenylpropan-2-yl)-1-methyl-1H-pyrazole-5-carboxamide]
79.4 |  | Cc1c(-c2ccc(NC(=O)[C@@H](NC(=O)c3ccnn3C)[C@H]3CC[C@H](C)CC3)cc2)ccc(=O)n1C [Example 33, N—((S)-2-((4-(1,2-dimethyl-6-oxo-1,6-dihydropyridin-3-yl)phenyl)amino)-1-((1r,4S)-4-methylcyclohexyl)-2-oxoethyl)-1-methyl-1H-pyrazole-5-carboxamide]
398 |  | Cn1nccc1C(=O)N[C@H](C(=O)Nc1ccc(-c2cccc3nccn23)cc1)[C@H]1CC[C@H](C)CC1 [Example 88, N—((S)-2-((4-(Imidazo[1,2-a]pyridin-5-yl)phenyl)amino)-1-((1r,4S)-4-methylcyclohexyl)-2-oxoethyl)-1-methyl-1H-pyrazole-5-carboxamide]
100 |  | Cc1cc(NC(=O)[C@@H](NC(=O)c2ccnn2C)C(c2ccccc2)c2ccccc2)ccc1-c1ccncc1 [Example 45, (S)-1-methyl-N-(1-((3-methyl-4-(pyridin-4-yl)phenyl)amino)-1-oxo-3,3-diphenylpropan-2-yl)-1H-pyrazole-5-carboxamide]
39.8 |  | Cc1cncc(C)c1-c1ccc(NC(=O)[C@@H](NC(=O)c2ccnn2C)C(c2ccccc2)c2ccccc2)cc1F [Example 14, (S)—N-(1-((4-(3,5-dimethylpyridin-4-yl)-3-fluorophenyl)amino)-1-oxo-3,3-diphenylpropan-2-yl)-1-methyl-1H-pyrazole-5-carboxamide]
12.6 |  | Cn1nccc1C(=O)N[C@H](C(=O)Nc1ccc(-c2c[nH]c(=O)c3[nH]ccc23)cc1)C(c1ccccc1)c1ccccc1 [Example 52, (S)-1-methyl-N-(1-oxo-1-((4-(7-oxo-6,7-dihydro-1H-pyrrolo[2,3-c]pyridin-4-yl)phenyl)amino)-3,3-diphenylpropan-2-yl)-1H-pyrazole-5-carboxamide]
501 |  | Cn1nccc1C(=O)N[C@H](C(=O)Nc1ccc(-c2cc[nH]c(=O)c2)cc1)[C@H]1CC[C@H](C)CC1 [Example 87, 1-Methyl-N—((S)-1-((1r,4S)-4-methylcyclohexyl)-2-oxo-2-((4-(2-oxo-1,2-dihydropyridin-4-yl)phenyl)amino)ethyl)-1H-pyrazole-5-carboxamide]
31.6 |  | Cc1n[nH]c(C)c1-c1ccc(NC(=O)[C@@H](NC(=O)c2ccnn2C)[C@H]2CC[C@H](C)CC2)cc1 [Example 84, N—((S)-2-((4-(3,5-Dimethyl-1H-pyrazol-4-yl)phenyl)amino)-1-((1r,4S)-4-methylcyclohexyl)-2-oxoethyl)-1-methyl-1H-pyrazole-5-carboxamide]
12.6 |  | Cn1nccc1C(=O)N[C@H](C(=O)Nc1ccc(C2=CCOCC2)cc1)C(c1ccccc1)c1ccccc1 [Example 81, (S)—N-(1-((4-(3,6-dihydro-2H-pyran-4-yl)phenyl)amino)-1-oxo-3,3-diphenylpropan-2-yl)-1-methyl-1H-pyrazole-5-carboxamide]
25.1 |  | COc1cnccc1-c1ccc(NC(=O)[C@@H](NC(=O)c2ccnn2C)C(c2ccccc2)c2ccccc2)cc1OC [Example 47, (S)—N-(1-((3-methoxy-4-(3-methoxypyridin-4-yl)phenyl)amino)-1-oxo-3,3-diphenylpropan-2-yl)-1-methyl-1H-pyrazole-5-carboxamide]
 | 501 | Cc1cc(NC(=O)[C@@H](NC(=O)c2ccnn2C)[C@H]2CC[C@H](C)CC2)ncc1-c1ccnn1C [Example 146, 1-methyl-N—((S)-2-((4-methyl-5-(1-methyl-1H-pyrazol-5-yl)pyridin-2-yl)amino)-1-((1r,4S)-4-methylcyclohexyl)-2-oxoethyl)-1H-pyrazole-5-carboxamide]

From US20230227427A1, “IL-17A MODULATORS” (SANOFI, priority 2010, published 2023)
